Holding throughout (assay): DTP human tumour cell line panel, 48 h
Assay [1] relates to NCI-H226 lung.
Assay [2] deals with OVCAR-3 ovarian.
Assay [3] has as its system SK-MEL-28 melanoma.
For assay [4], the system named is HS 578T breast.
Assay [5] relates to DU-145 prostate.
Assay [6] concerns CCRF-CEM leukemia.
Assay [7] has as its system MALME-3M melanoma.
The test system of assay [8] is MCF7 breast.
Assay [9] has as its system NCI-H522 lung.
Assay [10] relates to U251 CNS.

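Method: 48-hour compound exposure of cells in 96-well plates, five concentrations, linear interpolation of endpoints. GI50 is the concentration that inhibits growth by half. The concentration for full growth arrest is given as TGI.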

This is an account of results in PubChem BioAssay (NCI).

One may read the GI50 as the concentration that inhibits growth by half. As a reminder, the TGI is the concentration at which net growth stops.

As for `CC/C(=C(/c1ccc(OCCN(C)C)cc1)c1ccc(OC(=O)CCCCC(=O)c2c(C)[nH]c(/C=C3\N=C(c4ccc[nH]4)C=C3OC)c2C)cc1)c1ccccc1`, the GI50 in assay [1] was 14.2 µM; in assay [2] it was 11.7 µM; in assay [3] it was 11.6 µM; in [4] it was 4.98 µM; in assay [5] it was 7.73 µM; in assay [6], 0.32 µM. The GI50 in assay [7] was 9.28 µM; in assay [8], 0.0544 µM; in assay [9], 3.59 µM; in assay [10], 5.22 µM. The TGI in assay [1] was 34.3 µM; in assay [2], 27 µM; in [3], 23.7 µM; in [4], 47.6 µM; in assay [5], 21.1 µM; in assay [6], more than 100 µM. The TGI in [7] is 34.4 µM; in [8] it was 1.2 µM; in assay [9], 14.3 µM; in assay [10] it was 18.3 µM.
Turning to `CC(C)=C[C@@H]1C[C@H](C)[C@H]2CC[C@H](C)C3=C2[C@](O)(OC3=O)[C@]1(C)O`, the GI50 in [1], in assay [2], in assay [3], in assay [4], in assay [5] and in assay [6] was more than 100 µM in each case. For the same compound, the GI50 in assay [7] is more than 100 µM; in assay [8], 71.5 µM; in [9] it was more than 100 µM; in [10] it was more than 100 µM. The TGI in assay [1], in [2], in assay [3], in assay [4], in assay [5] and in assay [6] was more than 100 µM throughout. Besides, the total growth inhibition concentration (TGI) in assay [7], in [8], in assay [9] and in [10] was more than 100 µM in each case.
For `C=C(C)C(CC=C(C)C)CC12CC(CC=C(C)C)C(C)(C)C(CC=C(C)C)(C(=O)C(Cc3ccc(O)c(O)c3)=C1O)C2=O` (stereo not given), the TGI in assay [1], in assay [2], in [3], in assay [4], in [5] and in assay [6] was more than 100 µM each time. Also, the TGI in assay [7], in assay [8], in [9] and in assay [10] was more than 100 µM each time.
`O=C1NC(=Nc2ccccc2)S/C1=C\c1ccc2ncccc2c1`: the GI50 is more than 25 µM in [1]; 1.11 µM in assay [2]; more than 25 µM in [3]; more than 11.8 µM in assay [4]; more than 25 µM in assay [5]; more than 25 µM in assay [6]. In addition, the GI50 in assay [7] was more than 18.1 µM; in assay [8], 0.953 µM; in assay [9] it was more than 12.3 µM; in assay [10], more than 5.13 µM. Also, the total growth inhibition concentration (TGI) in [1], in [2], in assay [3], in assay [4], in assay [5] and in assay [6] was more than 25 µM throughout. In addition, the concentration for total growth inhibition (TGI) in [7], in assay [8], in assay [9] and in [10] was more than 25 µM throughout.
With `Cn1c(=O)c2c(nc(Nc3cc(=O)[nH]c(=O)[nH]3)n2Cc2ccccc2)n(C)c1=O`, the GI50 in assay [1], in assay [2], in assay [3], in assay [4], in assay [5] and in [6] was more than 100 µM each time. Further, the GI50 in [7], in [8], in assay [9] and in assay [10] was more than 100 µM in each case. The TGI in assay [1], in assay [2], in assay [3], in assay [4], in [5] and in assay [6] was more than 100 µM throughout. The TGI in assay [7], in [8], in assay [9] and in assay [10] was more than 100 µM each time.
As for `CCOC(=O)/C=C/C(C(=O)/C=C/c1ccc(OC2CCCCO2)c(OC)c1)=C(O)\C=C\c1ccc(OC2CCCCO2)c(OC)c1` (stereo not given), the GI50 in assay [1] was 12.9 µM; in assay [2], 2.58 µM; in [3] it was 2.48 µM; in [4] it was 12.3 µM; in assay [5], 7.01 µM; in [6] it was 2.69 µM. Further, the GI50 in assay [7] was 2.07 µM; in [8], 4.42 µM; in assay [9] it was 2.22 µM; in assay [10] it was 3.36 µM. Moreover, the TGI came to 34.7 µM in assay [1]; 8.47 µM in assay [2]; 6.74 µM in [3]; 80.5 µM in assay [4]; 42.6 µM in assay [5]; 8.35 µM in assay [6]. Further, the TGI in assay [7] came out at 5.9 µM; in assay [8], 36.2 µM; in assay [9] it was 6.68 µM; in assay [10] it was 12.6 µM.
With `Cn1cc(C2=C(c3ccc4ccccc4c3)C(=O)NC2=O)c2ccccc21`, the GI50 in [1] is more than 25 µM; in assay [2], more than 25 µM; in assay [3] it was more than 25 µM; in assay [4] it was more than 17.7 µM; in [5], more than 25 µM; in assay [6], more than 25 µM. In addition, the GI50 in [7] was more than 22.1 µM; in assay [8], 2.19 µM; in assay [9], 12.1 µM; in [10], more than 25 µM. Besides, the TGI in assay [1], in assay [2], in assay [3], in assay [4], in [5] and in assay [6] was more than 25 µM throughout. Moreover, the TGI in assay [7], in assay [8], in assay [9] and in assay [10] was more than 25 µM throughout.
